# Reference: publication PMC12217481, “Structure and mechanism of taniborbactam inhibition of the cefepime-hydrolyzing, partial R2-loop deletion Pseudomonas-derived cephalosporinase variant PDC-88” (Antimicrobial Agents and Chemotherapy, 2025)
# What was measured:
# [1] = test system: isogenic E. coli strains expressing PDC R2-loop deletion variants (PDC-88 to PDC-92); assay: MIC changes across the five isogenic E. coli R2-loop deletion strains; format: cell-based, Escherichia coli; settings: inhibitor at constant 4 µg/mL; R2-loop deletion variant strains
# Procedure: Modal broth microdilution MICs (or median broth microdilution MICs where appropriate) were determined in accordance with Clinical and Laboratory Standards Institute (CLSI) M07 guidelines ([43]). Isogenic E. coli DH10B cells expressing the abovementioned plasmid-encoded PDC constructs were used. […] CLSI quality control strains Escherichia coli NCTC 13353, E. coli ATCC 35218, and Klebsiella pneumoniae ATCC 700603 were used during testing ([24]).
# PDC-88 [2] = biological target: T1, PDC-88 (Pseudomonas aeruginosa, UniProt P24735, DEL316-317/G27D/G391A/T105A/V205L/V356I); format: binding
# T1 construct: NdeI 5′-[…]-3ʹ and BamHI 5ʹ-[…]-3ʹ; His tag removed) (N); made in house; host or cells: E. coli BL21-CodonPlus (DE3)-RP, pET24a(+)
# Procedure: Circular dichroism (CD) melting curve experiments were conducted using a J-815 spectropolarimeter (Jasco) and a Peltier effect temperature controller. Suprasil quartz cuvettes with a 0.1 cm path length (Hellma Analytics) were used in all experiments. […] Equilibrium constants were calculated, and the melting temperature, Tm, was calculated from equilibrium denaturation data as previously described ([28]).
# PDC-3 [3] = biological target: T2, PDC-3 (Pseudomonas aeruginosa, UniProt P24735, T105A); assay: Off-rate (koff) by jump-dilution, PDC-3; format: biochemical
# T2 construct: The PDC-3 expression construct was created in a similar manner but starting with a previously described pBC SK(−) vector; made in house; host or cells: E. coli BL21-CodonPlus (DE3)-RP, pET24a(+)
# Procedure: (§1) The off-rates (koff) were determined using a jump-dilution method ([44]). […] The enzyme was serially diluted to 1 nM, and 100 μM nitrocefin was added to initiate the reaction. Recovery progress covers were recorded at 482 nm. The koff value was determined by fitting the progress curves to a single exponential equation. The half-life was determined by dividing ln(2) by koff.
# PDC-3 [4] = biological target: T2, PDC-3; assay: Competitive inhibition assay with nitrocefin (Ki app, IC50), PDC-3; format: biochemical
# Procedure: (§2) β-Lactamase kinetic and inhibitor constants were determined using an Agilent 8453 UV-Visible Spectrophotometer to record progress curves and determine initial rates and other kinetic parameters as appropriate. Reactions were carried out in 1× phosphate-buffered saline (PBS) (pH 7.4) at room temperature in a 0.2 cm path-length quartz cuvette (Hellma Analytics). Reads were taken every 10 s to minimize UV-mediated background hydrolysis.
# (§3) Competitive inhibition assays were used to determine IC50 and Ki app. Nitrocefin (a reporter substrate), enzyme, and inhibitor were mixed, and initial velocities were determined. […] Inverse steady-state velocities (1/V0) were plotted against inhibitor concentration ([I]), forming a straight line. The y-intercept of this line was divided by the slope of the line to yield Ki app obs and IC50 values. Apparent Ki values (Ki app) were determined by correcting for the affinity of nitrocefin in the active site using equation 2:
# (§4) (2) KI app= KI app{obs/1+[S]/KM NCF
# PDC-88 [5] = biological target: T1, PDC-88; assay: biochemical; format: biochemical
# Procedure: as §2, §3, §4
# PDC-3 [6] = biological target: T2, PDC-3; assay: Thermal denaturation by circular dichroism, PDC-3; format: binding
# Procedure: Competitive enzyme inhibitors can increase enzyme thermal stability as a result of binding to the active site.
# Circular dichroism (CD) melting curve experiments were conducted using a J-815 spectropolarimeter (Jasco) and a Peltier effect temperature controller. Suprasil quartz cuvettes with a 0.1 cm path length (Hellma Analytics) were used in all experiments. […] Two-state behavior was observed, as indicated by identical curves at each wavelength. Equilibrium constants were calculated, and the melting temperature, Tm, was calculated from equilibrium denaturation data as previously described ([28]).
# PDC-88 [7] = biological target: T1, PDC-88; assay: Off-rate (koff) by jump-dilution, PDC-88; format: biochemical
# Procedure: as §1
smiles,measurement,setting,value
"NCCN[C@H]1CC[C@H](CC(=O)N[C@H]2Cc3cccc(C(=O)O)c3OB2O)CC1 [TAN, taniborbactam]",restoration of FEP activity / susceptibility by inhibitor,[1],restoring FEP activity in all cases
same,increase of Tm upon addition of inhibitor,PDC-88 [2]; PDC-88,+7 °C
same,Tm,"PDC-88 [2]; PDC-88 with inhibitor, circular dichroism, PDC-88 alone 53°C",60 °C
same,koff,PDC-3 [3],0.0012 ± 0.0001 s⁻¹
same,Ki app lower compared to avibactam,PDC-3 [4],4.1 fold
same,Ki app lower than TZB,PDC-3 [4],40 fold
same,Ki,PDC-3 [4]; nitrocefin reporter substrate,660 ± 70 nM
same,IC50,"PDC-3 [4]; nitrocefin reporter substrate, 5 min preincubation",16 ± 2 nM
same,IC50,PDC-88 [5],22 ± 2 nM
same,Ki,PDC-88 [5],610 ± 60 nM
same,Ki app lower compared to avibactam,PDC-88 [5]; PDC-88,9 fold
same,Ki app lower than TZB,PDC-88 [5]; PDC-88,95 fold
same,increase of Tm upon addition of inhibitor,PDC-3 [6]; PDC-3,+9 °C
same,Tm,"PDC-3 [6]; PDC-3 with inhibitor, circular dichroism, PDC-3 alone 52°C",61 °C
same,koff,PDC-88 [7],0.0007 ± 0.0001 s⁻¹
